From patent publication US20070299087A1, “New Compounds 319” (AstraZeneca AB, priority 2006, published 2007) come the findings set out here.

For orientation: IC50 means the concentration at which inhibition is half-maximal. A high value points to a need for much substance.

Counter-ions that a name gives are not always drawn.

In this assay the target is T1, human β-Secretase (sBACE-Fc) (Homo sapiens, UniProt P56817).
T1 construct: The soluble part of the human β-Secretase (AA 1-AA 460) was cloned; Fc domain of IgG1 (C); made in house
Briefly: TR-FRET assay (β-secretase enzyme, substrate (Europium)[…](Qsy7)). The format is biochemical. The protocol:
The enzyme used in the IGEN Cleavage-, Fluorescent-, TR-FRET- and BiaCore assays is described as follows:
The soluble part of the human β-Secretase (AA 1-AA 460) was cloned into the ASP2-Fc10-1-IRES-GFP-neoK mammalian expression vector. The gene was fused to the Fc domain of IgG1 (affinity tag) and stably cloned into HEK 293 cells. Purified sBACE-Fc is stored in Tris buffer, pH 9.2 and has a purity of 95%.
Enzyme was diluted to 6 μg/mL and the substrate (Europium)[…](Qsy7) to 200 nM in reaction buffer (NaAcetate, chaps, triton x-100, EDTA pH 4.5). Compounds were diluted to the desired concentration in dimethyl sulfoxide (final dimethyl sulfoxide concentration in assay is 5%). The assay was done in a Costar 384 well round bottom, low volume, non-binding surface plate (Corning #3676). Enzyme (9 μL) and 1 μL of compound in dimethyl sulfoxide was added to the plate, mixed and pre-incubated for 10 min. Substrate (10 μL) was added and the reaction proceeded in the dark for 15 min at RT. The reaction was stopped with the addition of 7 μL NaAcetate, pH 9. The fluorescence of the product was measured on a Victor II plate reader with an excitation wavelength of 340 nm and an emission wavelength of 615 nm. […] The dimethyl sulfoxide control defined the 100% activity level and 0% activity was defined by exclusion of the enzyme (using reaction buffer instead).

T1 sequence (P56817 22-460): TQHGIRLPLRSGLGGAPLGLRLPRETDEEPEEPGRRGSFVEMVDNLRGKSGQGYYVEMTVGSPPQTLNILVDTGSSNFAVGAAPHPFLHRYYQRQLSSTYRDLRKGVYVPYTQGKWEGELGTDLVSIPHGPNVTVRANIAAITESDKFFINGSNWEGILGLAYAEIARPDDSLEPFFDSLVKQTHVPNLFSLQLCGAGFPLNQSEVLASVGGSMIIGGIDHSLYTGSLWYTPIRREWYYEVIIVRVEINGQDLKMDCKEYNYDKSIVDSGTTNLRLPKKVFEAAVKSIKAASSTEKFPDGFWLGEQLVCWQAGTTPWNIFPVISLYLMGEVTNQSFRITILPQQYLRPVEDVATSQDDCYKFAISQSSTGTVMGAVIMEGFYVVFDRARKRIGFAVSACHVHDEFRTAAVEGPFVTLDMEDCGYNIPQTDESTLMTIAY

`N#Cc1cccc(-c2cccc(C3(c4ccncc4)N=C(N)N4CCCN=C43)c2)c1` (stereo not drawn) [Example 13, 3′-(6-Amino-8-pyridin-4-yl-2,3,4,8-tetrahydroimidazo[1,5-a]pyrimidin-8-yl)-biphenyl-3-carbonitrile hydrochloride] displayed an IC50 of 353 nM.

Regarding `COc1cccc(-c2cccc(C3(c4ccncc4)N=C(N)N4CCCN=C43)c2)c1` (stereo not drawn) [Example 14, 8-(3′-Methoxybiphenyl-3-yl)-8-pyridin-4-yl-2,3,4,8-tetrahydroimidazo[1,5-a]pyrimidin-6-amine 0.25 acetate], the IC50 came to 72 nM.

In turn, `COc1cncc(-c2cccc(C3(c4ccncc4)N=C(N)N4CCCN=C43)c2)c1` (stereo not drawn) [Example 15, 8-[3-(5-Methoxypyridin-3-yl)phenyl]-8-pyridin-4-yl-2,3,4,8-tetrahydroimidazo[1,5-a]pyrimidin-6-amine 0.25 acetate] had an IC50 of 117 nM. This IC50 lies about 1.6-fold higher than the previous one.

`NC1=NC(c2ccncc2)(c2cccc(-c3cccc(Cl)c3)c2)C2=NCCCN12` (stereo not drawn) [Example 16, 8-(3′-Chlorobiphenyl-3-yl)-8-pyridin-4-yl-2,3,4,8-tetrahydroimidazo[1,5-a]pyrimidin-6-amine 0.25 acetate] came in with an IC50 of 53 nM. This IC50 is about 2.2-fold lower than that of the compound before.

Turning to `NC1=NC(c2ccncc2)(c2cccc(-c3cccnc3F)c2)C2=NCCCN12` (stereo not drawn) [Example 17, 8-[3-(2-Fluoropyridin-3-yl)phenyl]-8-pyridin-4-yl-2,3,4,8-tetrahydroimidazo[1,5-a]pyrimidin-6-amine 0.25 acetate], half-maximal inhibition (IC50) required 150 nM. This IC50 lies about 2.8-fold higher than the previous one.

The compound `COc1ccc(F)c(-c2cccc(C3(c4ccncc4)N=C(N)N4CCCN=C43)c2)c1` (stereo not drawn) [Example 19, 8-(2′-Fluoro-5′-methoxybiphenyl-3-yl)-8-pyridin-4-yl-2,3,4,8-tetrahydroimidazo[1,5-a]pyrimidin-6-amine 0.25 acetate] came in with an IC50 of 74 nM. This IC50 lies about 2-fold lower than the previous one.

In the case of `N#Cc1ccc(F)c(-c2cccc(C3(c4ccncc4)N=C(N)N4CCCN=C43)c2)c1` (stereo not drawn) [Example 20, 3′-(6-amino-8-pyridin-4-yl-2,3,4,8-tetrahydroimidazo[1,5-a]pyrimidin-8-yl)-6-fluorobiphenyl-3-carbonitrile 0.25 acetate], the IC50 stood at 396 nM.

Turning to `N#Cc1cc(-c2cccc(C3(c4ccncc4)N=C(N)N4CCCN=C43)c2)ccc1F` (stereo not drawn) [Example 22, 3′-(6-amino-8-pyridin-4-yl-2,3,4,8-tetrahydroimidazo[1,5-a]pyrimidin-8-yl)-4-fluorobiphenyl-3-carbonitrile 0.25 acetate], the IC50 turned out to be 418 nM. The IC50 values of the last two compounds are within 1.5-fold of each other.

`NC1=NC(c2ccncc2)(c2cccc(-c3cccc(Cl)c3F)c2)C2=NCCCN12` (stereo not drawn) [Example 23, 8-(3′-Chloro-2′-fluorobiphenyl-3-yl)-8-pyridin-4-yl-2,3,4,8-tetrahydroimidazo[1,5-a]pyrimidin-6-amine 0.25 acetate] displayed an IC50 of 99 nM.

`NC1=NC(c2ccncc2)(c2cccc(-c3cccc(C(F)(F)F)c3)c2)C2=NCCCN12` (stereo not drawn) [Example 24, 8-Pyridin-4-yl-8-[3′-(trifluoromethyl)biphenyl-3-yl]-2,3,4,8-tetrahydroimidazo[1,5-a]pyrimidin-6-amine 0.25 acetate] registered an IC50 of 390 nM.

For the compound `CS(=O)(=O)c1cccc(-c2cccc(C3(c4ccncc4)N=C(N)N4CCCN=C43)c2)c1` (stereo not drawn) [Example 25, 8-[3′-(Methylsulfonyl)biphenyl-3-yl]-8-pyridin-4-yl-2,3,4,8-tetrahydroimidazo[1,5-a]pyrimidin-6-amine 0.25 acetate], the IC50 stood at 5080 nM.

For `NC1=NC(c2ccncc2)(c2cccc(-c3cc(Cl)cc(Cl)c3)c2)C2=NCCCN12` (stereo not drawn) [Example 26, 8-(3′,5′-Dichlorobiphenyl-3-yl)-8-pyridin-4-yl)-2,3,4,8-tetrahydroimidazo[1,5-a]pyrimidin-6-amine 0.25 acetate], the IC50 was 25 nM.

Compound `COc1cc(Cl)cc(-c2cccc(C3(c4ccncc4)N=C(N)N4CCCN=C43)c2)c1` (stereo not drawn) [Example 27, 8-(3′-Chloro-5′-methoxybiphenyl-3-yl)-8-pyridin-4-yl-2,3,4,8-tetrahydroimidazo[1,5-a]pyrimidin-6-amine 0.25 acetate] registered an IC50 of 66 nM. Against the preceding compound, the IC50 is about 2.6-fold higher.

The compound `NC1=NC(c2ccncc2)(c2cccc(-c3cccc(Cl)c3Cl)c2)C2=NCCCN12` (stereo not drawn) [Example 28, 8-(2′,3′-Dichlorobiphenyl-3-yl)-8-pyridin-4-yl-2,3,4,8-tetrahydroimidazo[1,5-a]pyrimidin-6-amine 0.25 acetate] returned an IC50 of 5070 nM.

`NC1=NC(c2ccncc2)(c2cccc(-c3cc(Cl)cnc3F)c2)C2=NCCCN12` (stereo not drawn) [Example 29, 8-[3-(5-Chloro-2-fluoropyridin-3-yl)phenyl]-8-pyridin-4-yl-2,3,4,8-tetrahydroimidazo[1,5-a]pyrimidin-6-amine 0.25 acetate] came in with an IC50 of 87 nM.

In turn, `CCOc1cccc(-c2cccc(C3(c4ccncc4)N=C(N)N4CCCN=C43)c2)c1` (stereo not drawn) [Example 30, 8-(3′-Ethoxybiphenyl-3-yl)-8-pyridin-4-yl-2,3,4,8-tetrahydroimidazo[1,5-a]pyrimidin-6-amine 0.25 acetate] registered an IC50 of 328 nM.

`NC1=NC(c2ccncc2)(c2cccc(-c3cc(Cl)ccc3F)c2)C2=NCCCN12` (stereo not drawn) [Example 31, 8-(5′-Chloro-2′-fluorobiphenyl-3-yl)-8-pyridin-4-yl-2,3,4,8-tetrahydroimidazo[1,5-a]pyrimidin-6-amine 0.25 acetate]: half-maximal inhibition (IC50) was put at 79 nM. Compared with the last compound, the IC50 is about 4.2-fold lower.

`COc1cc(-c2cccc(C3(c4ccncc4)N=C(N)N4CCCN=C43)c2)ccc1F` (stereo not drawn) [Example 32, 8-(4′-Fluoro-3′-methoxybiphenyl-3-yl)-8-pyridin-4-yl-2,3,4,8-tetrahydroimidazo[1,5-a]pyrimidin-6-amine 0.25 acetate] displayed an IC50 of 515 nM. Compared with the last compound, the IC50 is about 6.5-fold higher.

With `NC1=NC(c2ccncc2)(c2cccc(-c3cncc(F)c3)c2)C2=NCCCN12` (stereo not drawn) [Example 34, 8-[3-(5-Fluoropyridin-3-yl)phenyl]-8-pyridin-4-yl-2,3,4,8-tetrahydroimidazo[1,5-a]pyrimidin-6-amine 0.25 acetate], the IC50 is 186 nM.

Consider `COc1cc(OS(C)(=O)=O)cc(-c2cccc(C3(c4ccncc4)N=C(N)N4CCCN=C43)c2)c1` (stereo not drawn) [Example 35, 3′-(6-Amino-8-pyridin-4-yl-2,3,4,8-tetrahydroimidazo[1,5-a]pyrimidin-8-yl)-5-methoxybiphenyl-3-yl methanesulfonate 0.25 acetate], for which the IC50 turned out to be 57 nM.

On to `NC1=NC(c2ccncc2)(c2cccc(-c3cc(Cl)ccc3Cl)c2)C2=NCCCN12` (stereo not drawn) [Example 36, 8-(2′,5′-Dichlorobiphenyl-3-yl)-8-pyridin-4-yl-2,3,4,8-tetrahydroimidazo[1,5-a]pyrimidin-6-amine 0.25 acetate], for which half-maximal inhibition (IC50) required 267 nM.

`NC1=NC(c2ccncc2)(c2cccc(-c3ccc(F)c(Cl)c3)c2)C2=NCCCN12` (stereo not drawn) [Example 37, 8-(3′-Chloro-4′-fluorobiphenyl-3-yl)-8-pyridin-4-yl-2,3,4,8-tetrahydroimidazo[1,5-a]pyrimidin-6-amine 0.25 acetate] came in with an IC50 of 99 nM.

Turning to `NC1=NC(c2ccoc2)(c2cccc(-c3cc(Cl)cc(Cl)c3)c2)C2=NCCCN12` (stereo not drawn) [Example 43, 8-(3′,5′-Dichlorobiphenyl-3-yl)-8-(3-furyl)-2,3,4,8-tetrahydroimidazo[1,5-a]pyrimidin-6-amine acetate], the midpoint of inhibition, the IC50, lay at 152 nM.

`NC1=NC(c2ccoc2)(c2cccc(-c3cccnc3F)c2)C2=NCCCN12` (stereo not drawn) [Example 44, 8-[3-(2-Fluoropyridin-3-yl)phenyl]-8-(3-furyl)-2,3,48-tetrahydroimidazo[1,5-a]pyrimidin-6-amine acetate]: the IC50 is 656 nM.
